Experimental data published in patent US20090048229A1, “Methods for promoting wakefulness” (priority 2007, published 2009).
pIC50: −log10 of the molar value. Read-outs that look alike come from different tables or passages of the source.

How the values were obtained:
AChE = AChE (Homo sapiens, UniProt P22303); format: biochemical
[1] = molecular target: T1, human recombinant acetylcholinesterase (Homo sapiens, UniProt P22303); assay: biochemical; details: for inhibition at 10 µM: read-out: Inhibition of AChE (%) 10 μM
T1 construct: purchased Sigma Chemical Co (St. Louis, Mo.) C1682
T1 sequence (P22303 32-614): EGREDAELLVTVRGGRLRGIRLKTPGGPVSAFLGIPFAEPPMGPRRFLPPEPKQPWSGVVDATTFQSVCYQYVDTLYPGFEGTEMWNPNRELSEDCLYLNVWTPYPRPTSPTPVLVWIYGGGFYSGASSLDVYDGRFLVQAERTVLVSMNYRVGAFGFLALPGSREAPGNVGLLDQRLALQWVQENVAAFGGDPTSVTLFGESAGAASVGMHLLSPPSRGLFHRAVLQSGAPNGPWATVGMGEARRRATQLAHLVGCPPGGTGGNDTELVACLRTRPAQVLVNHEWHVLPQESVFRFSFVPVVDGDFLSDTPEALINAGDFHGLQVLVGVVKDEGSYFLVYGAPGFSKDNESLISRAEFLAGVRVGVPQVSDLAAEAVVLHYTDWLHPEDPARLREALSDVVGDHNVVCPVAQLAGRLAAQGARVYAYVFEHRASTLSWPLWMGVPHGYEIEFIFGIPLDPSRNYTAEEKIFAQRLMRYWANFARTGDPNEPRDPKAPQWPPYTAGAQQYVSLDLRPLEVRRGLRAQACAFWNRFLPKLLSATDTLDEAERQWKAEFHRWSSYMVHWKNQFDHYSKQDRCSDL
Protocol: All reagents employed in this experiment were of analytical grade. Acetylthiocholine iodide and 5,5′-dithiobis-(2-nitro)benzoic acid (DTNB) and human recombinant acetylcholinesterase (C1682) were purchased from Sigma Chemical Co (St. Louis, Mo.).
The enzyme, compound or stigmine and buffer were preincubated for 30 minutes. At the end of the preincubation period, the substrate acetylthiocholine was added. The final assay mixture contained 10 mM Tris-buffer (pH 8), 0.3 mM Acetylthiocholine and 0.33 mM DTNB and 0.08 U/ml enzyme. At least five (5) different concentrations of the compound or stigmine were assayed per IC50 experiment.
Hydrolysis of acetylthiocholine was monitored indirectly by measurement of the formation of the conjugate between thiocholine and DTNB.

[2] = Dose range for cholinergic effects / max tolerated dose; format: in vivo, rat; details: s.c., rats
Protocol: (§1) If less soluble, the maximum injection volume was 5 mL/kg.
(§2) Baseline temperatures were taken just before injection.

[3] = tested on: male CD IGS (Sprague Dawley derived) rats; assay: Induction of hypothermia after subcutaneous administration; format: in vivo, rat; details: for Hypothermia MED / Hypothermia MED (mg/kg) / Induction of hypothermia MED (mg/kg s.c.): s.c.; for Hypothermia MED / Hypothermia MED (mg/kg): rats; for Induction of hypothermia MED (mg/kg s.c.): hypothermia = fall in temperature of >0.5° C.; for fall in body temperature: subcutaneous administration
Description: Cholinergic agonists cause hypothermia through a central mechanism of action (Freedman et al, 1989. Direct measurement of muscarinic agents in the central nervous system of mice using ex vivo binding. Eur. J. Pharmacol. 174:253-260). […] Since a premise of the present invention is that carbomyl esters would liberate the conjugated amine in the CNS only after inhibition of acetylcholinesterase, induction of hypothermia provides a useful correlation with the acetylcholinesterase inhibition detected in vitro and in vivo.
Hypothermia was defined as a fall in temperature of >0.5° C.
Hypothermia is a marker of CNS penetration for ACHE inhibitors.
as §1, §2

BuChE = BuChE (Homo sapiens, UniProt P06276); assay: In vitro screening assay, BuChE inhibition; format: biochemical
Chain of BuChE (P06276 29-602): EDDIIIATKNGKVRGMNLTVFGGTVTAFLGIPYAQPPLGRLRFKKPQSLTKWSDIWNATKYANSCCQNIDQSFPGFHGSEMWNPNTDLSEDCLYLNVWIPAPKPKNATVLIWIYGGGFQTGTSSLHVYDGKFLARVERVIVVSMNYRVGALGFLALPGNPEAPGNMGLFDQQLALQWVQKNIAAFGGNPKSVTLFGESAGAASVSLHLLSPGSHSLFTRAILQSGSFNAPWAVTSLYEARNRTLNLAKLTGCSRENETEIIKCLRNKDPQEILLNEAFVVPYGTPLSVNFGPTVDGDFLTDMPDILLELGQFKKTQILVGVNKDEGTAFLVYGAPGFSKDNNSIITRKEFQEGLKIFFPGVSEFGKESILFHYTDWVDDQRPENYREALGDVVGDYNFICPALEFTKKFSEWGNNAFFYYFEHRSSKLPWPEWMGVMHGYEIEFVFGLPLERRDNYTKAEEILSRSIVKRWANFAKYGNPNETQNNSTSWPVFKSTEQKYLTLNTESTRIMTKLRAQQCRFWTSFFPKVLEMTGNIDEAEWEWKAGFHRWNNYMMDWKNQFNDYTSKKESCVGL
Description: An in vitro screening assay with various conjugates was completed according to the methods described in Ellman G L et al., Biochem Pharmacol., 7:88-95 (1961) and in Nadarajah B, J. Anal. Toxicol., 16:192-193 (1992), both of which are herein incorporated by reference in their entireties. The assay method was completed according to the following: […]

butylryl cholinesterase = butylryl cholinesterase (Homo sapiens, UniProt P06276); assay: Inhibition of butyrylcholinesterase; format: biochemical; details: read-out: Inhibition of BuChE (%) 10 μM
Chain of butylryl cholinesterase (P06276 29-602): as above
Protocol: The inhibition of butylryl cholinesterase was determined using methods known in the art e.g., Alcala Molel M. et al. (2003) Characterization of the anticholinesterase activity of two new tacrin-huperzine A hybrids. Neuropharmacology, 44 (6), 749-755.

male Wistar rats = assay: Wake promotion (EEG/EMG sleep-wake, locomotor activity, body temperature); format: in vivo, rat; details: for duration of wakefulness: administered 5 hours after lights on (CT-5), FIG. 2
Protocol: Test compounds in various dose ranges or vehicle were administered to male Wistar rats 5 hours after lights on (CT-5). EEG, EMG, locomotor activity, drink- and food-related activity, and body temperature were concurrently monitored for 30 hr before and after treatment from rats living in separate isolated recording chambers. Sleep-wake discriminations were carried out using SCORE2004™, proprietary real-time hardware and software technology of Hypnion, Inc. (Lexington, Mass.). Comparisons were made between the reference compounds: d-amphetamine, rivastigmine, modafinil, and the following carbamoyl ester test compounds: […]

[4] = 30 min preincubation, 25° C., read-out: Inhibition of AChE IC50

Chain of AChE (P22303 32-614): as the sequence (P22303 32-614) above

## C[C@@H](c1cccc(OC(=O)N[C@H]2C[C@@H]2c2ccccc2)c1)N(C)C (stereo in doubt) [Compound 2, S-riva-tranylcypromine]
AChE; 1 μM
  AChEI (%) 1 μM: 84%
AChE; 10 μM
  AChEI (%) 10 μM: 97%
[1]
  pIC50: 6.70
[2]
  Max Tolerated Dose: 30
[3]
  Hypothermia MED: 10 mg/kg
BuChE; 1 μM
  BuChEI (%) 1 μM: 23%
BuChE; 10 μM
  BuChEI (%) 10 μM: 67%

## CCN(C)C(=O)Oc1cccc([C@H](C)N(C)C)c1 [Compound 1, S-rivastigmine, reference compound]
Butylryl cholinesterase
  inhibition at 10 µM: 100%
Male Wistar rats; FIG. 3
  rebound hypersomnolence: rebound hypersomnolence
Male Wistar rats
  duration of wakefulness: increased wakefulness
[2]
  Max Tolerated Dose: 10
[3]
  Hypothermia MED (mg/kg): ≦0.1 mg/kg
  Induction of hypothermia MED (mg/kg s.c.): ≦0.1 mg/kg s.c.
  fall in body temperature: dose-related-related fall in body temperature
BuChE
  BuChEI (%) 1 μM: 45%
  BuChEI (%) 10 μM: 100%

## C[C@@H](c1cccc(OC(=O)N2CCN(C3=Nc4ccccc4Oc4ccc(Cl)cc43)CC2)c1)N(C)C [Compound 3, S-riva-amoxapine]
AChE; 10 μM
  AChEI (%) 10 μM: 16%
[1]
  pIC50: 4.68
[2]
  Max Tolerated Dose: ≧100
[3]
  Hypothermia MED: 10 mg/kg
BuChE; 10 μM
  BuChEI (%) 10 μM: 6%

## C[C@@H](c1cccc(OC(=O)N(C)CCCN2c3ccccc3CCc3ccccc32)c1)N(C)C [Compound 4, S-riva-desipramine]
AChE; 1 μM
  AChEI (%) 1 μM: 91%
AChE; 10 μM
  AChEI (%) 10 μM: 99%
[1]
  pIC50: 6.70
[2]
  Max Tolerated Dose: ≧100
[3]
  Hypothermia MED: 3 mg/kg
BuChE; 1 μM
  BuChEI (%) 1 μM: 16%
BuChE; 10 μM
  BuChEI (%) 10 μM: 60%

## Cc1ccccc1O[C@H](CCN(C)C(=O)Oc1cccc([C@H](C)N(C)C)c1)c1ccccc1 [Compound 5, S-riva-atomoxetine]
AChE; 1 μM
  AChEI (%) 1 μM: 29%
AChE; 10 μM
  AChEI (%) 10 μM: 89%
[2]
  Max Tolerated Dose: ≧100
[3]
  Hypothermia MED (mg/kg): ≦1 mg/kg
BuChE; 10 μM
  BuChEI (%) 10 μM: 14%

## C[C@@H](c1cccc(OC(=O)N(C)CCC=C2c3ccccc3CCc3ccccc32)c1)N(C)C [Compound 5A, S-riva-nortriptyline]
AChE; 1 μM
  AChEI (%) 1 μM: 81%
AChE; 10 μM
  AChEI (%) 10 μM: 99%
[1]
  pIC50: 6.30
BuChE; 1 μM
  BuChEI (%) 1 μM: 24%
BuChE; 10 μM
  BuChEI (%) 10 μM: 55%

## C[C@@H](c1cccc(OC(=O)N(C)CCCC2c3ccccc3C=Cc3ccccc32)c1)N(C)C [Compound 6, S-riva-protriptyline]
AChE; 1 μM
  AChEI (%) 1 μM: 81%
AChE; 10 μM
  AChEI (%) 10 μM: 99%
[1]
  pIC50: 6.30
[2]
  Max Tolerated Dose: >100
[3]
  Hypothermia MED: 100 mg/kg
BuChE; 1 μM
  BuChEI (%) 1 μM: 16%
BuChE; 10 μM
  BuChEI (%) 10 μM: 53%

## C[C@@H](c1cccc(OC(=O)N(C)CCC(Oc2ccc(C(F)(F)F)cc2)c2ccccc2)c1)N(C)C (some centres unmarked) [Compound 7A, S-riva-fluoxetine]
AChE; 1 μM
  AChEI (%) 1 μM: 11%
AChE; 10 μM
  AChEI (%) 10 μM: 76%
[1]
  pIC50: 5.32
[2]
  Max Tolerated Dose: ≧100
[3]
  Hypothermia MED: 3 mg/kg
BuChE; 10 μM
  BuChEI (%) 10 μM: 15%

## COCCCC/C(=N\OCCNC(=O)Oc1cccc([C@H](C)N(C)C)c1)c1ccc(C(F)(F)F)cc1 [Compound 8, S-riva-fluvoxamine]
AChE; 1 μM
  AChEI (%) 1 μM: 17%
AChE; 10 μM
  AChEI (%) 10 μM: 76%
[1]
  pIC50: 5.21
BuChE; 10 μM
  BuChEI (%) 10 μM: 6%

## C[C@@H](c1cccc(OC(=O)N2CC[C@@H](c3ccc(F)cc3)[C@H](COc3ccc4c(c3)OCO4)C2)c1)N(C)C [Compound 9A, S-riva-paroxetine]
AChE; 1 μM
  AChEI (%) 1 μM: 9%
AChE; 10 μM
  AChEI (%) 10 μM: 69%
[1]
  pIC50: 5.02
BuChE; 10 μM
  BuChEI (%) 10 μM: 4%

## C[C@@H](c1cccc(OC(=O)N(C)CC[C@H](Oc2cccc3ccccc23)c2cccs2)c1)N(C)C [Compound 10, S-riva-duloxetine]
AChE; 1 μM
  AChEI (%) 1 μM: 88%
AChE; 10 μM
  AChEI (%) 10 μM: 100%
[1]
  pIC50: 6.30 to 6.70
BuChE; 10 μM
  BuChEI (%) 10 μM: 36%

## C#CCN(C(=O)Oc1cccc([C@H](C)N(C)C)c1)[C@H](C)Cc1ccccc1 [Compound 11, S-riva-desmethylselegiline]
AChE; 1 μM
  AChEI (%) 1 μM: 13%
AChE; 10 μM
  AChEI (%) 10 μM: 52%
BuChE; 10 μM
  BuChEI (%) 10 μM: 17%

## C[C@@H](c1cccc(OC(=O)N(C)[C@@H](C)Cc2ccccc2)c1)N(C)C [Compound 13, S-riva-d-methamphetamine]
AChE; 1 μM
  AChEI (%) 1 μM: 51%
AChE; 10 μM
  AChEI (%) 10 μM: 97%
Butylryl cholinesterase
  inhibition at 10 µM: 95%
[1]; [4]
  pIC50: 5.96
[1]
  inhibition at 10 µM: 97%
Male Wistar rats
  duration of wakefulness: dose-related increase in wakefulness
[3]
  Induction of hypothermia MED (mg/kg s.c.): 10 mg/kg s.c.
  fall in body temperature: dose-related-related fall in body temperature
BuChE; 1 μM
  BuChEI (%) 1 μM: 25%
BuChE; 10 μM
  BuChEI (%) 10 μM: 95%

## C[C@@H](Cc1ccccc1)NC(=O)Oc1ccc2c(c1)[C@]1(C)CCN(C)[C@@H]1N2C [Compound 14, Physo-d-amphetamine]
AChE; 1 μM
  AChEI (%) 1 μM: 45%
AChE; 10 μM
  AChEI (%) 10 μM: 94%
Butylryl cholinesterase
  inhibition at 10 µM: 28%
[1]
  inhibition at 10 µM: 94%
BuChE; 10 μM
  BuChEI (%) 10 μM: 28%

## COc1ccccc1CC(C)N(C)C(=O)Oc1cccc([C@H](C)N(C)C)c1 (some centres unmarked) [Compound 15, S-riva-methoxyphenamine]
AChE; 1 μM
  AChEI (%) 1 μM: 49%
AChE; 10 μM
  AChEI (%) 10 μM: 95%
Butylryl cholinesterase
  inhibition at 10 µM: 30%
[1]
  pIC50: 5.96
  inhibition at 10 µM: 95%
BuChE; 10 μM
  BuChEI (%) 10 μM: 30%

## CC(CC1CCCCC1)N(C)C(=O)Oc1cccc([C@H](C)N(C)C)c1 (some centres unmarked) [Compound 16, S-riva-propylhexedrine]
[1]
  pIC50: 6.05
[2]
  Max Tolerated Dose: ≧100
[3]
  Hypothermia MED: 10 mg/kg

## C#CCN(C(=O)Oc1cccc([C@@H](C)N(C)C)c1)[C@H](C)Cc1ccccc1 [Compound 17, R-riva-desmethylselegiline]
AChE; 10 μM
  AChEI (%) 10 μM: 31%
BuChE; 10 μM
  BuChEI (%) 10 μM: 12%

## C#CCN(C(=O)Oc1ccc2c(c1)[C@]1(C)CCN(C)[C@@H]1N2C)[C@H](C)Cc1ccccc1 [Compound 18, Physo-desmethylselegiline]
AChE; 10 μM
  AChEI (%) 10 μM: 37%
BuChE; 10 μM
  BuChEI (%) 10 μM: 8%

## C[C@@H](Cc1ccccc1)NC(=O)Oc1cccc([C@H](C)N(C)C)c1 [Compound 20, S-riva-d-amphetamine]
AChE; 1 μM
  AChEI (%) 1 μM: 35%
AChE; 10 μM
  AChEI (%) 10 μM: 76%
Butylryl cholinesterase
  inhibition at 10 µM: 20%
[1]; [4]
  pIC50: 5.51
[1]
  inhibition at 10 µM: 76%
Male Wistar rats
  duration of wakefulness: dose-related increase in wakefulness
[3]
  Induction of hypothermia MED (mg/kg s.c.): ≦1 mg/kg s.c.
  fall in body temperature: dose-related-related fall in body temperature
BuChE; 10 μM
  BuChEI (%) 10 μM: 20%

## CN1CC[C@@]2(C)c3cc(OC(=O)Nc4ccccc4)ccc3N(C)[C@@H]12 [Phenserine, reference compound]
AChE
  AChEI (%) 1 μM: 93%
  AChEI (%) 10 μM: 99%
BuChE
  BuChEI (%) 10 μM: 42%

## C[C@H](N)Cc1ccccc1 [d-amphetamine, reference compound]
Male Wistar rats; FIG. 4
  effect on body temperature: increase in body temperature (hyperthermia)
Male Wistar rats
  duration of wakefulness: increased the duration of wakefulness

## CN[C@@H](C)Cc1ccccc1 [d-methamphetamine, reference compound]
Male Wistar rats; FIG. 5
  locomotor hyperactivity / stimulant activity: locomotor hyperactivity

## NC(=O)C[S+]([O-])C(c1ccccc1)c1ccccc1 (centres unmarked) [modafinil, reference compound]
Male Wistar rats
  duration of wakefulness: increased the duration of wakefulness
